One may read the IC50 as the concentration at which inhibition is half-maximal.

For one assay, the target named is T1, PD-1/PD-L1 (Homo sapiens, UniProt Q9NZQ7).
T1 construct: made in house; host or cells: HEK293T
T1 sequence (Q9NZQ7 with tags, fused parts or gaps): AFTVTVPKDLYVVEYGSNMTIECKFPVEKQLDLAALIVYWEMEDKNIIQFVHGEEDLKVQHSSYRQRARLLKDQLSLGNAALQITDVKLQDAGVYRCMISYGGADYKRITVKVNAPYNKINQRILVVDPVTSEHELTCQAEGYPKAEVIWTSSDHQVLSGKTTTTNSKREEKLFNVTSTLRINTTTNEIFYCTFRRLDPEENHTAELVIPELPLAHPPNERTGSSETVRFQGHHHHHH
The assay is described as follows: PD-1/PD-L1 Homogenous Time-Resolved Fluorescence (HTRF) binding assay. The note with it: PD-L1-His 10 nM, PD-1-Ig 20 nM; numeric IC50; read-out: Range or IC50. In a few lines:
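dPBS + 0.1% BSA + 0.05% Tween-20 buffer; Eu-cryptate anti-Ig 1 nM final, APC anti-His 20 nM final; HTRF read. Counter-assays: PD-1-Ig/PD-L2-His 20 & 5 nM, CD80-His/PD-L1-Ig 100 & 10 nM.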
On the technique in general: TR-FRET usually uses a lanthanide donor and a delayed reading to cut background.
As for `Cc1c(COc2cc(OCc3cncc(C#N)c3)c(CN3CCCC[C@H]3C(=O)O)cc2Cl)cccc1-c1cccc(OCCCN(C)C)c1C` [Example 2253, (2S)-1-(5-chloro-2-((5-cyanopyridin-3-yl)methoxy)-4-((3′-(3-(dimethylamino)propoxy)-2,2′-dimethylbiphenyl-3-yl)methoxy)benzyl)piperidine-2-carboxylic Acid], the IC50 worked out at 5.3 nM.

The same assay, now with this note: PD-L1-His 10 nM, PD-1-Ig 20 nM; value given as range class; read-out: Range or IC50.
With `Cc1c(COc2cc(OCc3cncc(C#N)c3)c(CN3CCCC[C@H]3C(=O)O)cc2Cl)cccc1-c1cccc(OCCCN2CC3CC2CO3)c1C` (stereo partly drawn) [Example 2249, (2S)-1-(4-((3′-(3-(2-oxa-5-azabicyclo[2.2.1]heptan-5-yl)propoxy)-2,2′-dimethylbiphenyl-3-yl)methoxy)-5-chloro-2-((5-cyanopyridin-3-yl)methoxy)benzyl)piperidine-2-carboxylic Acid], the IC50 lay in the range of 0.21 to 10 nM.

Turning to `CC(=O)N[C@@H]1CCN(CCCOc2cccc(-c3cccc(COc4cc(OCc5cncc(C#N)c5)c(CN5CCCC[C@H]5C(=O)O)cc4Cl)c3C)c2C)C1` [Example 2250, (2S)-1-(4-((3′-(3-((R)-3-acetamidopyrrolidin-1-yl)propoxy)-2,2′-dimethylbiphenyl-3-yl)methoxy)-5-chloro-2-((5-cyanopyridin-3-yl)methoxy)benzyl)piperidine-2-carboxylic Acid], the IC50 lay within 0.21 to 10 nM.

Regarding `Cc1c(COc2cc(OCc3cncc(C#N)c3)c(CN3CCCC[C@H]3C(=O)O)cc2Cl)cccc1-c1cccc(OCCCN2CCCCC2CC(=O)O)c1C` (stereo partly drawn) [Example 2251, (2S)-1-(4-((3′-(3-(2-(carboxymethyl)piperidin-1-yl)propoxy)-2,2′-dimethylbiphenyl-3-yl)methoxy)-5-chloro-2-((5-cyanopyridin-3-yl)methoxy)benzyl)piperidine-2-carboxylic Acid], the IC50 was in the range of 0.21 to 10 nM.

Consider `CO[C@@H]1CCN(CCCOc2cccc(-c3cccc(COc4cc(OCc5cncc(C#N)c5)c(CN5CCCC[C@H]5C(=O)O)cc4Cl)c3C)c2C)C1` [Example 2252, (2S)-1-(5-chloro-2-((5-cyanopyridin-3-yl)methoxy)-4-((3′-(3-((R)-3-methoxypyrrolidin-1-yl)propoxy)-2,2′-dimethylbiphenyl-3-yl)methoxy)benzyl)piperidine-2-carboxylic Acid], for which the IC50 was in the range of 0.21 to 10 nM.

Consider `Cc1c(COc2cc(OCc3cncc(C#N)c3)c(CN(C)CC(O)CO)cc2Cl)cccc1-c1cccc(OCCCN(C)CC(O)CO)c1C` (stereo not drawn) [Example 2254, 5-((4-chloro-2-(((2,3-dihydroxypropyl)(methyl)amino)methyl)-5-((3-(3-((2,3-dihydroxypropyl) (methyl)amino)propoxy)-2,2′-dimethylbiphenyl-3-yl)methoxy)phenoxy)methyl)nicotinonitrile], for which the IC50 is 0.21 to 10 nM.

Take `Cc1c(COc2cc(OCc3cncc(C#N)c3)c(CN3CCCC(CO)C3)cc2Cl)cccc1-c1cccc(OCCCN2CCCC(CO)C2)c1C` (stereo not drawn) [Example 2255, 5-((4-chloro-2-((3-(hydroxymethyl)piperidin-1-yl)methyl)-5-((3′-(3-(3-(hydroxymethyl)piperidin-1-yl)propoxy)-2,2′-dimethylbiphenyl-3-yl)methoxy)phenoxy)methyl)nicotinonitrile]: the IC50 lay in the range of 0.21 to 10 nM.

With `Cc1c(COc2cc(OCc3cncc(C#N)c3)c(CN3CCCCC3CO)cc2Cl)cccc1-c1cccc(OCCCN2CCCCC2CO)c1C` (stereo not drawn) [Example 2256, 5-((4-chloro-2-((2-(hydroxymethyl)piperidin-1-yl)methyl)-5-((3′-(3-(2-(hydroxymethyl)piperidin-1-yl)propoxy)-2,2′-dimethylbiphenyl-3-yl)methoxy)phenoxy)methyl)nicotinonitrile], the half-maximal inhibitory concentration (IC50) fell in the range of 0.21 to 10 nM.

With `Cc1c(COc2cc(OCc3cncc(C#N)c3)c(CN3CC[C@H](CO)[C@H](O)C3)cc2Cl)cccc1-c1cccc(OCCCN2CC[C@H](CO)[C@H](O)C2)c1C` [Example 2257, 5-((4-chloro-2-(((3S,4R)-3-hydroxy-4-(hydroxymethyl)piperidin-1-yl)methyl)-5-((3′-(3-((3S,4R)-3-hydroxy-4-(hydroxymethyl)piperidin-1-yl)propoxy)-2,2′-dimethylbiphenyl-3-yl)methoxy)phenoxy)methyl)nicotinonitrile], the IC50 lay within 0.21 to 10 nM.

Turning to `Cc1c(COc2cc(OCc3cncc(C#N)c3)c(CN3CCN(CCO)CC3)cc2Cl)cccc1-c1cccc(OCCCN2CCN(CCO)CC2)c1C` [Example 2258, 5-((4-chloro-2-((4-(2-hydroxyethyl)piperazin-1-yl)methyl)-5-((3′-(3-(4-(2-hydroxyethyl)piperazin-1-yl)propoxy)-2,2′-dimethylbiphenyl-3-yl)methoxy)phenoxy)methyl)nicotinonitrile], the IC50 fell in the range of 0.21 to 10 nM.

With `Cc1c(COc2cc(OCc3cncc(C#N)c3)c(CN3CCC[C@H](C(=O)O)C3)cc2Cl)cccc1-c1cccc(OCCCN2CCC[C@H](C(=O)O)C2)c1C` [Example 2259, (3S)-1-(3-(3′-((4-(((S)-3-carboxypiperidin-1-yl)methyl)-2-chloro-5-((5-cyanopyridin-3-yl)methoxy)phenoxy)methyl)-2,2′-dimethylbiphenyl-3-yloxy)propyl)piperidine-3-carboxylic Acid], the IC50 lay in the range of 0.21 to 10 nM.

As for `Cc1c(COc2cc(OCc3cncc(C#N)c3)c(CN[C@@](C)(CO)C(=O)O)cc2Cl)cccc1-c1cccc(OCCCN2CCCC(CO)C2)c1C` (stereo partly drawn) [Example 2260, (2S)-2-(5-chloro-2-((5-cyanopyridin-3-yl)methoxy)-4-((3′-(3-(3-(hydroxymethyl)piperidin-1-yl)propoxy)-2,2′-dimethylbiphenyl-3-yl)methoxy)benzylamino)-3-hydroxy-2-methylpropanoic Acid], the IC50 was 0.21 to 10 nM.

As to `Cc1c(COc2cc(OCc3cncc(C#N)c3)c(CN[C@@](C)(CO)C(=O)O)cc2Cl)cccc1-c1cccc(OCCCN2CC[C@H](CO)[C@H](O)C2)c1C` [Example 2261, (2S)-2-(5-chloro-2-((5-cyanopyridin-3-yl)methoxy)-4-((3′-(3-((3 S,4R)-3-hydroxy-4-(hydroxymethyl)piperidin-1-yl)propoxy)-2,2′-dimethylbiphenyl-3-yl)methoxy)benzylamino)-3-hydroxy-2-methylpropanoic Acid], the IC50 was 0.21 to 10 nM.

As to `Cc1c(COc2cc(OCc3cncc(C#N)c3)c(CN[C@@](C)(CO)C(=O)O)cc2Cl)cccc1-c1cccc(OCCCN2CCC[C@H](O)C2)c1C` [Example 2262, (2S)-2-(5-chloro-2-((5-cyanopyridin-3-yl)methoxy)-4-((3′-(3-((S)-3-hydroxypiperidin-1-yl)propoxy)-2,2′-dimethylbiphenyl-3-yl)methoxy)benzylamino)-3-hydroxy-2-methylpropanoic Acid], the IC50 fell in the range of 0.21 to 10 nM.

For `Cc1c(COc2cc(OCc3cncc(C#N)c3)c(CN[C@@](C)(CO)C(=O)O)cc2Cl)cccc1-c1cccc(OCCCN2CCN(CCO)CC2)c1C` [Example 2263, (2S)-2-(5-chloro-2-((5-cyanopyridin-3-yl)methoxy)-4-((3′-(3-(4-(2-hydroxyethyl)piperazin-1-yl)propoxy)-2,2′-dimethylbiphenyl-3-yl)methoxy)benzylamino)-3-hydroxy-2-methylpropanoic Acid], the IC50 fell in the range of 0.21 to 10 nM.

Regarding `Cc1c(COc2cc(OCc3cncc(C#N)c3)c(CN[C@@](C)(CO)C(=O)O)cc2Cl)cccc1-c1cccc(OCCCN2CCC[C@H](C(=O)O)C2)c1C` [Example 2264, (3S)-1-(3-(3′-((4-(((S)-2-carboxy-1-hydroxypropan-2-ylamino)methyl)-2-chloro-5-((5-cyanopyridin-3-yl)methoxy)phenoxy)methyl)-2,2′-dimethylbiphenyl-3-yloxy)propyl)piperidine-3-carboxylic Acid], the IC50 lay in the range of 0.21 to 10 nM.

As to `Cc1c(COc2cc(OCc3cncc(C#N)c3)c(CNC[C@H](O)CO)cc2Cl)cccc1-c1cccc(OCCCNC[C@H](O)CO)c1C` [Example 2265, 5-((4-chloro-2-(((S)-2,3-dihydroxypropylamino)methyl)-5-((3′-(3-((S)-2,3-dihydroxypropylamino)propoxy)-2,2′-dimethylbiphenyl-3-yl)methoxy)phenoxy)methyl)nicotinonitrile], the IC50 was 0.21 to 10 nM.

Take `Cc1c(COc2cc(OCc3cncc(C#N)c3)c(CN(C)CCC(N)=O)cc2Cl)cccc1-c1cccc(OCCCN(C)CCC(N)=O)c1C` [Example 2266, 3-((3-(3′-((4-(((3-amino-3-oxopropyl)(methyl)amino)methyl)-2-chloro-5-((5-cyanopyridin-3-yl)methoxy)phenoxy)methyl)-2,2′-dimethylbiphenyl-3-yloxy)propyl)(methyl)amino)propanamide]: the half-maximal inhibitory concentration (IC50) fell in the range of 0.21 to 10 nM.

Turning to `CC(=O)N[C@@H]1CCN(CCCOc2cccc(-c3cccc(COc4cc(OCc5cncc(C#N)c5)c(CN5CC[C@@H](NC(C)=O)C5)cc4Cl)c3C)c2C)C1` [Example 2267, N-((3R)-1-(3-(3′-((4-(((R)-3-acetamidopyrrolidin-1-yl)methyl)-2-chloro-5-((5-cyanopyridin-3-yl)methoxy)phenoxy)methyl)-2,2′-dimethylbiphenyl-3-yloxy)propyl)pyrrolidin-3-yl)acetamide], the IC50 fell in the range of 0.21 to 10 nM.

Turning to `Cc1c(COc2cc(OCc3cncc(C#N)c3)c(CN3CCCC[C@H]3C(=O)O)cc2Cl)cccc1-c1cccc(OCCCN2CCCC[C@H]2C(=O)O)c1C` [Example 2268, (2S)-1-(3-(3′-((4-(((S)-2-carboxypiperidin-1-yl)methyl)-2-chloro-5-((5-cyanopyridin-3-yl)methoxy)phenoxy)methyl)-2,2′-dimethylbiphenyl-3-yloxy)propyl)piperidine-2-carboxylic Acid], the IC50 is 0.21 to 10 nM.

Take `CNC1CCN(CCCOc2cccc(-c3cccc(COc4cc(OCc5cncc(C#N)c5)c(CN5CCCC[C@H]5C(=O)O)cc4Cl)c3C)c2C)CC1` [Example 2269, (2S)-1-(5-chloro-2-((5-cyanopyridin-3-yl)methoxy)-4-((2,2′-dimethyl-3′-(3-(4-(methylamino)piperidin-1-yl)propoxy)biphenyl-3-yl)methoxy)benzyl)piperidine-2-carboxylic Acid]: the IC50 was in the range of 0.21 to 10 nM.

These data come from US10745382B2 (BRISTOL-MYERS SQUIBB COMPANY, priority 2015, dated 2020).
